The values that follow come from patent US20040171511A1, “Allergen removing agent” (priority 2001, published 2004).

SMILES strings stand for the structures.

On the data set, the source says:
Component (c1-1) is preferably in a state that it is soluble in the allergen-removing agent.

Take `CCCCCCCCCCCCCCCCO` [palmityl alcohol]: the “solubility in component (a)” value was not below 5 g/100 g and the solubility in water is not above 0.3 g/100 g.
